From patent publication US20240016894A1, “METHODS AND MATERIALS FOR AMELIORATING CREATINE DEFICIENCY DISORDERS” (The Regents of the University of California, priority 2022, published 2024)

Test system: Gamt−/− mice
Experiment: (18F)-FDG PET brain glucose uptake
Format: in vivo, mouse
Details: Gamt-deficient mice; sequence regular chow (5.24±0.76), oral creatine supplementation, then AAV (regular chow only)
Description: Considering the importance of the creatine/phosphocreatine shuttle to cells with high-energy expenditures, we examined the uptake of glucose to the brain in Gamt-deficient mice. Fluorodeoxyglucose (18(F)-FDG)-positron-emission tomography (PET) is a well-established non-invasive imaging tool for monitoring changes in cerebral brain glucose metabolism in vivo. To examine restoration of hepatic Gamt and its effect as a treatment strategy in GAMT deficiency, we sought to examine the brain of this preclinical model. By measuring cerebral glucose metabolism with (18F)-FDG-PET we can detect neuronal dysfunction in vivo as brain glucose metabolism is determined by synaptic activity mainly in order to restore membrane potentials (26). To semi-quantitate tissue activity, we determined the activity divided by the decay-corrected activity injected into the mouse; this ratio is defined as the percent-injected dose per cubic centimeter in tissue (% ID/cc). […]
We evaluated if there was a substantial improvement in brain metabolism with restoration of GAMT activity in hepatocytes with a gene therapy approach and compared this to present day therapy with oral creatine supplementation. […]
Animals were anesthetized with 1.5% vaporized isoflurane, and injected with (18F)-FDG via tail vein. […] Co-registered PET/CT data were analyzed and quantified using AMIDE software. […]

With CN(CC(=O)O)C(=N)N [creatine] the “Brain (18F)-FDG uptake, each mouse its own control” value was 5.26±1.10 % ID/cc.
